Where a name gives a salt, the structure may show the parent alone. Values belong to the compound of their own block, whether it stands above or below them.
Key:
[1] = Metabolite profiling in liver microsomes and S9; type: in vitro ADME, rat, dog, monkey, human; settings: liver microsomes and S9, 10 μM COMPOUND I, 30 min; species letters not defined
Description: Microsomal incubations for metabolite profiling were similar to those described above for intrinsic clearance determination (see Table 1). Aliquots of COMPOUND I (10 μL), dissolved in DMSO:methanol (1:9), were added to a 96-well plate containing phosphate buffer, and MgCl2 and the liver microsomes at 37° C. using the same automation apparatus as for the stability study described hereinabove. The reactions were initiated by the addition of the UDPGA and NADPH generating system. The final incubation volume for all samples was 1 mL and the length of incubation was 30 min. […] Three 250 μL aliquots were transferred to a 96-well plate containing 900 μL acetonitrile to precipitate the protein. […] The samples were then reconstituted in 150 μL of 20% methanol in water. The three aliquots for each sample were pooled and analyzed by LC/MS.
S9 incubation buffer and cofactors were chosen to allow N-acetylation and carbamoyl glucuronidation in addition to oxidative and glucuronidation pathways possible in liver microsomes. Incubations of sulfamethazine and SCA-136 with liver S9 were used as positive controls for N-acetylation and carbamoyl glucuronidation, respectively. Following a 30 min. incubation, 750 μL from each sample were added to 900 μL acetonitrile. Following centrifugation and evaporation of the supernatant, the samples were reconstituted in 450 μL of 20% methanol in water for analysis by HPLC/UV and LC/MS (see below).
The HPLC system used for mass spectrometric analysis was an Agilent 1100 HPLC (Agilent Technologies, Palo Alto, Calif.) equipped with a binary pump and a diode array UV detector. The UV detector was set to monitor 190-400 nm. Separations were accomplished on a Luna C18 column (150×2.1 mm, 5 μm) (Phenomenex Incorporated, Torrance, Calif.).
The mass spectrometer used for metabolite characterization was a Finnigan LCQ Deca ion trap mass spectrometer (Thermo Electron Corp.). […] Full scan and data dependent MS2 and MS3 mass spectra were recorded. Finnigan Xcalibur software (version 1.3) was used for control of equipment and recording of data from UV and LC/MS analyses.
Chromatographic profiles of COMPOUND I (10 μM) metabolites in incubations with liver microsomes in the presence of NADPH are presented in FIG. 1. Chromatographic profiles of COMPOUND I (10 μM) metabolites in incubations with liver microsomes in the presence of NADPH and UDPGA are presented in FIG. 2. Chromatographic profiles of COMPOUND I (10 μM) metabolites in incubations with liver S9 in the presence of NADPH, UDPGA and acetyl coenzyme A (CoA) are presented in FIG. 3. In incubations containing NADPH, UDPGA and acetyl CoA, fourteen Phase I metabolites (M1, M6, M8, M12, M13, M14, M15, M16, M17, M18, M20, M21, M22 and M23) and six Phase II metabolites (M2, M3, M5, M7, M9 and M10) were observed. In incubations without cofactors, no metabolites were observed.
LC/MS analysis was conducted on extracts of mouse, rat, monkey and human liver microsomes and S9. The mass spectral data for the characterized COMPOUND I metabolites are discussed below.

[2] = In vivo metabolism of [14C]COMPOUND I in Sprague-Dawley rats, single oral 5 mg/kg dose; design: species or system rat; settings: for Chromatographic Distribution of Radioactivity in Pooled Plasma Samples: 5 mg/kg oral [14C]COMPOUND I
Description: Dose preparation, animal dosing, and specimen collection were performed at Wyeth Research, Collegeville, Pa. The vehicle contained 2% (w/v) polysorbate 80, NF and 0.5% (w/v) methylcellulose (4000 cps) in water. [^14C]COMPOUND I trisuccinate salt (36.6 mg) and non-labeled COMPOUND I trisuccinate salt (26.7 mg) were dissolved in 1 mL of ethanol and suspended in 35 mL of the vehicle with stirring. The target [^14C]COMPOUND I concentration was approximately 1 mg/mL as free base and 70 μCi/mL with a target specific activity of 70 μCi/mg. Three pre- and post-dose aliquots (100 μL) were taken for the determination of radiochemical purity, drug and radioactivity concentrations and specific activity (see below).
Male rats weighing from 323 to 354 g and female rats weighing from 270 to 317 g at the time of dosing were purchased from Charles River Laboratories (Wilmington, Mass.). Non-fasted rats were given a single 5 mg/kg (˜350 μCi/kg) dose of [^14C]COMPOUND I at a volume of 5.0 mL/kg via intragastric gavage. Three rats were dosed for each time point. Animals were provided Purina rat chow and water ad libitum, and were kept individually in metabolism cages.
Blood samples were collected at 1, 3, 6 and 24 hr from male rats and at 1 and 3 hr from female rats after dose administration by cardiac puncture into tubes containing EDTA as the anticoagulant and placing them on ice. Triplicate aliquots (50 μL) of whole blood were removed and plasma was immediately obtained from the remaining blood by centrifugation at 4° C. Whole brain samples were collected after saline perfusion at 1, 3, 6 and 24 hr post-dose from male rats and at 1 and 3 hr post-dose from female rats. Urine samples were collected on dry ice from male rats at intervals of 0-6 and 6-24 hr post-dose. Feces were collected from male rats at 0-24 hr post-dose at room temperature. The biological specimens and aliquots of the dose suspension were stored at approximately −70° C. until analysis.
Triplicate aliquots of diluted dose (20 μL), dose fractions (10 μL), and plasma (50 μL) and urine (100 μL) from individual rats were analyzed for radioactivity concentrations. Radioactivity determinations were made with a Tri-Carb Model 3100 TR liquid scintillation counter (LSC) (Perkin Elmer) using 5 mL of Ultima Gold as the scintillation fluid.
Brain and fecal samples from individual rats were weighed and homogenized in water at a volume-to-weight ratio of about 3:1 and 5:1, respectively, with a Polytron PT homogenizer at ice-cold temperature. Duplicate aliquots of blood (50 μL), brain homogenates (0.2 g) and fecal homogenates (0.2 g) were placed on Combusto-cones with Combusto-pads and allowed to dry overnight. Samples were combusted with a model 307 Tri-Carb Sample Oxidizer, equipped with an Oximate-80 Robotic Automatic Sampler (Perkin Elmer). The liberated ^14CO2 was trapped with Carbo-Sorb E carbon dioxide absorber, mixed with PermaFluor® E^+ liquid scintillation cocktail, and counted in a Tri-Carb Model 3100 TR/LL liquid scintillation counter (Perkin Elmer).
Plasma samples were pooled by equal volumes from three animals at each time point (1, 3, 6 and 24 hr for males; 1 and 3 hr for females). Aliquots of 2 mL of pooled plasma were mixed with 2 mL of acetonitrile, placed on ice for about 10 min, and then centrifuged at 4° C. The supernatant was transferred to a clean tube. The protein pellets were extracted two more times with 4 mL of acetonitrile. The supernatants from precipitation and extraction of each sample were pooled, mixed, and evaporated at 22° C. under nitrogen in a TurboVap LV evaporator (Caliper Life Sciences, Hopkinton, Mass.) to about 1.0 mL. The concentrated extract was centrifuged, the supernatant volume measured and the extraction efficiency was determined by analyzing duplicate 10 μL aliquots for radioactivity concentrations.

[3] = In vivo metabolism and excretion of [14C]COMPOUND I in male beagle dogs, single oral 3 mg/kg dose; design: species or system dog; settings: 3 mg/kg oral
Description: Dose preparation, animal dosing, and specimen collection were performed at Wyeth Research, Collegeville, Pa. The vehicle contained 2% (w/v) polysorbate 80, NF and 0.5% (w/v) methylcellulose (4000 cps) in water. [^14C]COMPOUND I trisuccinate salt (50.25 mg) and non-labeled COMPOUND I trisuccinate salt (331.9 mg) were suspended in 72 mL of the vehicle by grinding with a mortar and a pestle. The target [^14C]COMPOUND I concentration was approximately 3 mg/mL as free base and 48 μCi/mL with a target specific activity of 16 μCi/mg. Three pre- and post-dose aliquots (100 μL) were taken for the determination of radiochemical purity, drug and radioactivity concentrations and specific activity (see below).
Four male beagle dogs, weighing from 9.4 to 11.5 kg at the time of dosing, were from an in-house colony. Non-fasted dogs were given a single 3 mg/kg (approximately 48 μCi/kg) dose of [^14C]COMPOUND I at a volume of 1 mL/kg via intragastric gavage. Animals were provided Purina dog chow and water ad libitum, and were housed individually in metabolic cages.
Blood samples were collected from the jugular vein at 1, 4, 8, 24, 48, 72 and 120 hr after dose administration into tubes containing potassium EDTA as the anticoagulant and then placed on ice. Aliquots of 200 μL were removed and plasma was harvested immediately from the remaining blood by centrifugation at 4° C. Urine samples were collected into tubes on dry ice from 0-24 and 24-48 hr, and then at ambient temperature at 24 hr intervals for 7 days post-dose. Fecal samples were collected at 24 hr intervals for 7 days post-dose at room temperature. Cage rinses were collected daily by rinsing each cage with approximately 500 mL of 30% ethanol in water. The dose aliquots and biological specimens were stored at approximately −70° C. until analysis.
Triplicate aliquots of diluted dose (20 μL), dose fractions (10 μL) and plasma (50 μL), urine (200 μL) and cage wash (500 μL) from individual dogs were analyzed for radioactivity content. The samples were assayed in a Tri-Carb Model 3100TR liquid scintillation counter (Perkin Elmer) using 5 mL of Ultima Gold scintillation cocktail.
Fecal samples from individual dogs were weighed and homogenized in water at a volume-to-weight ratio of about 4:1 with a Silverson sealed-unit homogenizer at ambient temperature. Triplicate aliquots of whole blood (50 μL) and fecal homogenates (approximately 0.2 g) were placed into Combusto-cones with Combusto-pads and allowed to dry overnight. Samples were combusted with a model 307 Tri-Carb Sample Oxidizer, equipped with an Oximate-80 Robotic Automatic Sampler (Perkin Elmer). The liberated ^14CO2 was trapped with Carbo-Sorb® E carbon dioxide absorber, mixed with PermaFluor® E+liquid scintillation cocktail, and counted in a Tri-Carb Model 3100 TR/LL liquid scintillation counter.
Plasma samples were pooled by mixing equal volumes from four animals at each time point (1, 4, 8 and 24 hr). Aliquots of 2.0 mL of pooled plasma were mixed with 2.0 mL of acetonitrile, placed on ice for about 10 min, and then centrifuged at 4° C. The supernatant was transferred to a clean tube. The protein pellets were extracted two more times with 2.0 mL of acetonitrile. The supernatants from precipitation and extraction of each sample were pooled, mixed, and evaporated at 22° C. under nitrogen in a TurboVap LV evaporator (Caliper Life Sciences, Hopkinton, Mass.) to about 0.8 mL. The concentrated extract was centrifuged, the supernatant volume measured and the extraction efficiency was determined by analyzing duplicate 10 μL aliquots for radioactivity concentrations. For metabolite profiling, an aliquot of the supernatant (200 μL) was injected onto the HPLC column as described hereinbelow, and fractions were collected at 20 second intervals into 96-well Lumaplates (Perkin Elmer).

[4] = Turnover to metabolites in cryopreserved hepatocytes; settings: 100 μM, 1 hr
Description: Chromatographic analyses were performed with a Waters Alliance model 2695 HPLC system (Waters Corp., Milford, Mass.) that was equipped with a built-in autosampler. The column eluent was monitored with a model 996 diode array UV detector, set to monitor 250 nm, and a FloOne β Model A525 radioactivity flow detector (Perkin Elmer) with a 250 μL flow cell. Separation of the parent compound from metabolites was accomplished using a Discovery C18 column, 250×4.6 mm, 5 μm (Supelco, Bellefonte, Pa.) at an ambient temperature of approximately 20° C. Mobile phase A was 10 mM ammonium acetate (pH 4.5) and mobile phase B was acetonitrile and they were delivered at 1 mL/min using the gradient described in Table 10. The Ultima Flo M scintillant flow rate was 3 mL/min.
Flo-One analytical software (version 3.65) was utilized to integrate the radioactive peaks. Means and standard deviations were calculated using Microsoft Excel® 2000. Micromass MassLynx software (version 4.0, Waters Corp.) was used for control of LC/MS equipment and recording of data from LC/MS analyses.

Compound: COC1=CC(=O)c2ncccc2C1=O [Metabolite M1, 6-Methoxy-quinoline-5,8-dione]
- Species (in which the metabolite was characterized) [1]: R, D, M, H

Compound: O=C(O)C1OC(Oc2cc(N3CCN(C4CCN(c5ccc(F)c6cccnc56)CC4)CC3)c3ncccc3c2)C(O)C(O)C1O (stereo not shown) [Metabolite M11, O-Desmethyl COMPOUND I glucuronide]
- Chromatographic Distribution of Radioactivity in Pooled Plasma Samples ([2]; female rats, 1 hr): 56.8%
- Chromatographic Distribution of Radioactivity in Pooled Plasma Samples ([2]; female rats, 3 hr): 48.2%
- percent of total plasma radioactivity ([2]; male and female rats, range over time points, 5 mg/kg oral): 41.3-56.8%
- Chromatographic Distribution of Radioactivity in Pooled Plasma Samples ([2]; male rats, 1 hr): 52.9%
- Chromatographic Distribution of Radioactivity in Pooled Plasma Samples ([2]; male rats, 3 hr): 43.1%
- Chromatographic Distribution of Radioactivity in Pooled Plasma Samples ([2]; male rats, 6 hr): 41.3%

Compound: COc1cc(N2CCN(C3CCN(C4=CC(=O)C(=O)c5cccnc54)CC3)CC2)c2ncccc2c1 [Metabolite M16, Desfluoro COMPOUND I quinone]
- Species (in which the metabolite was characterized) [1]: R, M, H

Now from value to compound:

- Species (in which the metabolite was characterized) [1]: R, D, M, H
Compound: O=C1C=C(N2CCN(C3CCN(c4ccc(F)c5cccnc45)CC3)CC2)c2ncccc2C1=O [Metabolite M23, Desmethyl COMPOUND I quinone]

- Source ([3]; P, plasma, F, feces): P, F
- percent of total fecal radioactivity ([3]; pooled 0-24 hr fecal sample): 4.6%
- percent of total fecal radioactivity ([3]; pooled 24-48 hr fecal sample): 19.3%
Compound: O=S(=O)(O)Oc1cc(N2CCN(C3CCN(c4ccc(F)c5cccnc45)CC3)CC2)c2ncccc2c1 [Metabolite M24, O-Desmethyl COMPOUND I sulfate]

- Species (in which the metabolite was characterized) [1]: R, D, M, H
Compound: Methoxyquinolinyl-piperazine [Metabolite P1]

- turnover (positive control) ([4]; dog hepatocytes): 9%
- turnover (positive control) ([4]; human hepatocytes): 6%
- turnover (positive control) ([4]; rat hepatocytes): 10%
Compound: [^14C]7-Ethoxycoumarin [reference compound]

Reference: US20080262228A1, “Metabolites of 5-fluoro-8- quinoline and methods of preparation and uses thereof” (Wyeth, priority 2006, published 2008)
